Values joined by “and” are separate entries in the source; they are usually repeats but may differ in a detail not shown here. Equal values may be shown once.
System: MDCK cells
Assay: MTT assay (cytotoxicity against MDCK cells)
Type: cell-based, canine
Conditions: MDCK cells; for MTT, DMSO as 100 (DMSOを 100として), ave / MTT 72h AVE (DMSO = 100): 72h; for MTT, DMSO as 100 (DMSOを 100として), ave: mean of 5 wells (200409 #1 and #3); for MTT 72h AVE (DMSO = 100): summary AVE; for MTT 24h, AVE (DMSO as 100) / MTT 24h, 570-650nm, DMSO as 100, ave: mean of 5 wells from 3 experiments; for MTT 24h, AVE (DMSO as 100): relative to DMSO = 100; for MTT 24h, 570-650nm, DMSO as 100, single replicate: individual wells (200331; 200403 #2 1,2; 200403 #3 1,2); for 570-650nm (MTT absorbance, single wells) / 570-650nm ave (mean MTT absorbance of 5 wells) / MTT absorbance with DMSO as 100 (DMSOを 100として), single wells: MTT 72h; for 570-650nm (MTT absorbance, single wells): experiments #1-#3, duplicate wells; for MTT absorbance with DMSO as 100 (DMSOを 100として), single wells: relative to mean of DMSO
Protocol: 1–5 (0.8–100 μM) were prepared in DMSO (100 μM, 1%; 50 μM, 0.5%; 25 μM, 0.25%; 12.5 μM, 0.125%; 6.3 μM, 0.063%; 3.1 μM, 0.031%; 1.6 μM, 0.016%; 0.8 μM, 0.008%) and mixed with infection medium (DMEM supplemented with 1% bovine serum albumin (BSA; Wako), P/S and 4 mM L-glutamine). The resulting mixture was added to the cells and incubated for 24 or 72 h at 37°C in the presence of 5% CO2. After incubation, cell viability was determined using an MTT cell count kit (Nacalai Tesque) according to the manufacturer’s instructions, as previously described.

[1] = 3.13uM (3.125uM in summary block)

C=C[C@]1(C)CC[C@@H](C(=C)C)[C@H](c2ccc(O)cc2)C1 [Cyclo. B]
MTT, DMSO as 100 (DMSOを 100として), ave (0.78uM): 97.4368 | MTT, DMSO as 100 (DMSOを 100として), ave (1.56uM): 107.487 | MTT, DMSO as 100 (DMSOを 100として), ave (3.125uM): 135.205 | MTT 72h AVE (DMSO = 100) (6.25 (uM)): 152.012 | MTT 72h AVE (DMSO = 100) (12.5 (uM)): 128.856 | MTT 72h AVE (DMSO = 100) (25 (uM)): 133.275 | MTT 72h AVE (DMSO = 100) (50 (uM)): 92.332 | MTT 72h AVE (DMSO = 100) (100 (uM)): 27.1545 | MTT 24h, AVE (DMSO as 100) (0.78 uM): 105.371 | MTT 24h, AVE (DMSO as 100) (1.56 uM): 93.7053 | MTT 24h, 570-650nm, DMSO as 100, single replicate (3.125uM): 97.7259 and 87.8578 and 108.85 and 106.215 and 84.4914 | MTT 24h, 570-650nm, DMSO as 100, ave (3.125uM): 97.028 | MTT 24h, 570-650nm, DMSO as 100, single replicate (6.25uM): 100.056 and 92.1514 and 106.191 and 111.594 and 90.247 | MTT 24h, 570-650nm, DMSO as 100, ave (6.25uM): 100.048 | MTT 24h, 570-650nm, DMSO as 100, single replicate (12.5uM): 100.027 and 92.2079 and 111.97 and 107.481 and 100.019 | MTT 24h, 570-650nm, DMSO as 100, ave (12.5uM): 102.341 | MTT 24h, 570-650nm, DMSO as 100, single replicate (25uM): 93.3176 and 99.811 and 119.964 and 115.104 and 108.65 | MTT 24h, 570-650nm, DMSO as 100, ave (25uM): 107.369 | MTT 24h, 570-650nm, DMSO as 100, single replicate (50uM): 101.366 and 118.852 and 85.3652 and 130.523 and 116.385 | MTT 24h, 570-650nm, DMSO as 100, ave (50uM): 110.498 | MTT 24h, 570-650nm, DMSO as 100, single replicate (100uM): 120.469 and 116.882 and 135.616 and 105.182 and 78.3439 | MTT 24h, 570-650nm, DMSO as 100, ave (100uM): 111.299 | 570-650nm (MTT absorbance, single wells) (0.78uM): 1.0803 and 0.7822 and 0.6986 and 0.7618 and 0.6844 and 0.8059 | 570-650nm (MTT absorbance, single wells) (1.56uM): 0.9938 and 0.9382 and 0.7725 and 0.5035 and 0.9217 and 0.7676 | 570-650nm (MTT absorbance, single wells) [1]: 0.8489 and 0.8759 and 0.9309 and 0.9208 and 0.9982 and 0.8279 | 570-650nm ave (mean MTT absorbance of 5 wells) (6.25uM): 1.04 | 570-650nm (MTT absorbance, single wells) (6.25uM): 0.8643 and 1.0571 and 1.004 and 1.1478 and 1.1256 and 0.8768 | MTT absorbance with DMSO as 100 (DMSOを 100として), single wells (6.25uM): 154.547 and 146.784 and 167.807 and 164.561 and 126.36 | 570-650nm ave (mean MTT absorbance of 5 wells) (12.5uM): 1.026 | 570-650nm (MTT absorbance, single wells) (12.5uM): 1.0196 and 0.9592 and 1.0242 and 0.9589 and 1.0117 and 1.1742 | MTT absorbance with DMSO as 100 (DMSOを 100として), single wells (12.5uM): 120.471 and 128.675 and 147.52 and 127.104 and 120.509 | 570-650nm ave (mean MTT absorbance of 5 wells) (25uM): 1.002 | 570-650nm ave (mean MTT absorbance of 5 wells) (50uM): 0.8426 | 570-650nm ave (mean MTT absorbance of 5 wells) (100uM): 0.2557 | 570-650nm (MTT absorbance, single wells) (100uM): 0.2419 and 0.2859 and 0.234 and 0.2603 and 0.2251 and 0.273 | MTT absorbance with DMSO as 100 (DMSOを 100として), single wells (100uM): 27.6474 and 24.854 and 28.9963 and 23.9087 and 30.3664

C=C[C@]1(C)CC[C@H](C(C)(C)O)[C@@H](c2ccc(O)cc2)C1 [Cyclo. C]
MTT, DMSO as 100 (DMSOを 100として), ave (0.78uM): 97.7369 | MTT, DMSO as 100 (DMSOを 100として), ave (1.56uM): 116.194 | MTT, DMSO as 100 (DMSOを 100として), ave (3.125uM): 124.106 | MTT 72h AVE (DMSO = 100) (6.25 (uM)): 130.219 | MTT 72h AVE (DMSO = 100) (12.5 (uM)): 123.122 | MTT 72h AVE (DMSO = 100) (25 (uM)): 141.455 | MTT 72h AVE (DMSO = 100) (50 (uM)): 116.495 | MTT 72h AVE (DMSO = 100) (100 (uM)): 142.83 | MTT 24h, AVE (DMSO as 100) (0.78 uM): 97.4262 | MTT 24h, AVE (DMSO as 100) (1.56 uM): 89.4582 | MTT 24h, 570-650nm, DMSO as 100, single replicate (3.125uM): 98.8583 and 80.6936 and 68.9227 and 107.532 and 92.5261 | MTT 24h, 570-650nm, DMSO as 100, ave (3.125uM): 89.7067 | MTT 24h, 570-650nm, DMSO as 100, single replicate (6.25uM): 105.442 and 92.9243 and 77.243 and 111.801 and 97.5139 | MTT 24h, 570-650nm, DMSO as 100, ave (6.25uM): 96.9849 | MTT 24h, 570-650nm, DMSO as 100, single replicate (12.5uM): 112.407 and 88.505 and 78.5484 and 110.111 and 102.316 | MTT 24h, 570-650nm, DMSO as 100, ave (12.5uM): 98.3774 | MTT 24h, 570-650nm, DMSO as 100, single replicate (25uM): 89.9468 and 93.8621 and 86.7762 and 109.435 and 109.619 | MTT 24h, 570-650nm, DMSO as 100, ave (25uM): 97.9279 | MTT 24h, 570-650nm, DMSO as 100, single replicate (50uM): 107.424 and 104.395 and 78.3927 and 112.047 and 113.734 | MTT 24h, 570-650nm, DMSO as 100, ave (50uM): 103.198 | MTT 24h, 570-650nm, DMSO as 100, single replicate (100uM): 113.671 and 119.568 and 104.628 and 127.474 and 126.723 | MTT 24h, 570-650nm, DMSO as 100, ave (100uM): 118.413 | 570-650nm (MTT absorbance, single wells) (0.78uM): 0.9938 and 0.7395 and 0.7311 and 0.6372 and 0.8862 and 0.7504 | 570-650nm (MTT absorbance, single wells) (1.56uM): 0.9464 and 0.9776 and 0.7533 and 0.5791 and 0.9528 and 0.9569 | 570-650nm (MTT absorbance, single wells) [1]: 0.9669 and 0.8575 and 0.7479 and 0.8256 and 0.9 and 0.8489 | 570-650nm ave (mean MTT absorbance of 5 wells) (6.25uM): 0.8907 | 570-650nm (MTT absorbance, single wells) (6.25uM): 0.8518 and 0.8346 and 0.7398 and 1.0173 and 1.01 and 0.9632 | MTT absorbance with DMSO as 100 (DMSOを 100として), single wells (6.25uM): 122.018 and 108.158 and 148.728 and 147.661 and 124.532 | 570-650nm ave (mean MTT absorbance of 5 wells) (12.5uM): 0.98 | 570-650nm (MTT absorbance, single wells) (12.5uM): 0.9561 and 0.8827 and 0.8467 and 1.0013 and 1.1241 and 1.0452 | MTT absorbance with DMSO as 100 (DMSOを 100として), single wells (12.5uM): 125.798 and 106.375 and 131.313 and 141.226 and 110.898 | 570-650nm ave (mean MTT absorbance of 5 wells) (25uM): 1.064 | 570-650nm (MTT absorbance, single wells) (25uM): 0.9926 and 0.9592 and 0.9724 and 1.0619 and 1.1012 and 1.2247 | MTT absorbance with DMSO as 100 (DMSOを 100として), single wells (25uM): 141.191 and 129.291 and 162.837 and 146.417 and 127.536 | 570-650nm ave (mean MTT absorbance of 5 wells) (50uM): 1.063 | 570-650nm (MTT absorbance, single wells) (50uM): 1.1675 and 1.0763 and 1.0296 and 0.8397 and 1.1252 and 1.245 | MTT absorbance with DMSO as 100 (DMSOを 100として), single wells (50uM): 92.0098 and 112.818 and 136.42 and 123.293 and 117.935 | 570-650nm ave (mean MTT absorbance of 5 wells) (100uM): 1.345 | 570-650nm (MTT absorbance, single wells) (100uM): 1.4551 and 1.3837 and 1.3254 and 1.1438 and 1.3954 and 1.4754 | MTT absorbance with DMSO as 100 (DMSOを 100として), single wells (100uM): 121.487 and 140.775 and 156.707 and 148.21 and 146.968

From PMC7997032, “Organic synthesis and anti-influenza A virus activity of cyclobakuchiols A, B, C, and D” (PLoS ONE, 2021)
